Assay results from article PMC5492227 (European journal of medicinal chemistry, 2017).

Molecular target: T1, EPAC1 (Homo sapiens, UniProt O95398)
T1 sequence (O95398 1-923): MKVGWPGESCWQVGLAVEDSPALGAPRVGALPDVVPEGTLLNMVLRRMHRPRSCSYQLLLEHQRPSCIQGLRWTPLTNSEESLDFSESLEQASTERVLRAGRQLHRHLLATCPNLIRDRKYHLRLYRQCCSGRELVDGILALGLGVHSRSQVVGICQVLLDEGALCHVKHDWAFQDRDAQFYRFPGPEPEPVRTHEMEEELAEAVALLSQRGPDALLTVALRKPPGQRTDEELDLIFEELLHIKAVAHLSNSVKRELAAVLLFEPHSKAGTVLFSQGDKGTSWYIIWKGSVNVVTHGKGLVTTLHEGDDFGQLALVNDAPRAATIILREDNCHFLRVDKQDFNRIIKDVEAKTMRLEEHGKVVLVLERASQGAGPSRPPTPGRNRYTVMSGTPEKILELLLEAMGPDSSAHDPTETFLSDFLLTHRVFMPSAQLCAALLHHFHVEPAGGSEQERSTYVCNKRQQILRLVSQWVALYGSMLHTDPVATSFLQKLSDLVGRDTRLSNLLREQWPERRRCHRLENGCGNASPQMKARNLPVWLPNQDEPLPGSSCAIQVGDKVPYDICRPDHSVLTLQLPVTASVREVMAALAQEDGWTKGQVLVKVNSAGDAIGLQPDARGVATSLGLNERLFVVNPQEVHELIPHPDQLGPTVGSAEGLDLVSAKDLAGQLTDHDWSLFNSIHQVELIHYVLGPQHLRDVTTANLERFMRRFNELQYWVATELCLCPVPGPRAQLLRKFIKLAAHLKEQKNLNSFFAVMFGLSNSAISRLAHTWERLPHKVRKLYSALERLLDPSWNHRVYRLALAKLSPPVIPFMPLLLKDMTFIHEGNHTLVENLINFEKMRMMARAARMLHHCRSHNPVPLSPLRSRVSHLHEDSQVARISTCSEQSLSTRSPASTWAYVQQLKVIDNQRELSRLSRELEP
Experiment: biochemical
Type: biochemical

**Q.** `N#C/C(=N\Nc1ccc(Cl)c(C(F)(F)F)c1)C(=O)c1cc(-c2ccccc2)on1` [Compound 14, N-(3-Trifluromethyl-4-chlorophenyl)-2-oxo-2-(5-phenylisoxazol-3-yl)acetohydrazonoyl cyanide] was tested. Which “fold increase in potency compared to that of 1 (EPAC1)” value did it give?
**A.** about 5 fold

**Q.** Which IC50 (Rap1b-bGDP EPAC1 IC50, purified recombinant full-length EPAC1, 20 μM cAMP, mean ± SD of at least three independent experiments) does the source give for `N#C/C(=N\Nc1cccc(Cl)c1)C(=O)c1cc(-c2ccco2)on1` [Compound 25, N-(3-Chlorophenyl)-2-(5-(furan-2-yl)isoxazol-3-yl)-2-oxoacetohydrazonoyl cyanide] here?
**A.** 3.6 µM
